Data as given in article PMC9901178 (bioRxiv, 2023).

What was measured:
[1] = test system: HEK293/GC-A^+/AT1^+ cells; experiment: Intracellular cGMP generation in HEK293/GC-A+/AT1+ cells; assay type: cell-based, human; conditions: ANP 10^−8 M, ANGII 10^−8 M
[2] = test system: PKC; experiment: PKC activity by western blot of phosphorylated pan-PKC substrates; assay type: cell-based, human; conditions: Go6983 5 μM, HEK293/GC-A^+/AT1^+ cells

For `CCCCC(=O)N(Cc1ccc(-c2ccccc2-c2nnn[nH]2)cc1)[C@H](C(=O)O)C(C)C` [valsartan], the “Rescue of the suppression effect of ANGII on ANP-induced cGMP” value ([1]; valsartan 1 μM) was “significantly rescued”.

In the case of `COc1ccc2c(c1)c(C1=C(c3c[nH]c4ccccc34)C(=O)NC1=O)cn2CCCN(C)C` [Go6983], the “PKC activity, phosphorylated status of pan-PKC substrates” value [2] is reported as “effectively inhibited PKC activity” and the “Rescue of the suppression effect of ANGII on ANP-induced cGMP” value ([1]; Go6983 5 μM) is reported as “significantly rescued”.
